Laboratory results from patent publication US12365667B2, “Sulfone pyridine alkyl amide-substituted heteroaryl compounds” (BRISTOL-MYERS SQUIBB COMPANY, priority 2017, dated 2025).
pIC50: −log10 of the molar value.

System: IFNα-induced STAT phosphorylation (pSTAT5) in human whole blood
Assay: IFNα-Induced STAT Phosphorylation in Human Whole Blood
Assay type: cell-based
Details: 1 h incubation with compound, 1000 U/mL recombinant human IFNα A/D for 15 min, pSTAT5 in CD3 positive population, read-out: IFNα-Induced Stat Phosph. (IC50)

pIC50 | Structure (SMILES)
6.54 | CNC(=O)c1cnc(NC(=O)C2CCC2)cc1Nc1ncccc1S(C)(=O)=O [Example 239]
7.23 | CNC(=O)c1cnc(Nc2cnc(C3CC3)cn2)cc1Nc1ncccc1S(C)(=O)=O [Example 222]
7.47 | CNC(=O)c1cnc(Nc2cc(C)c(F)cn2)cc1Nc1ncccc1S(C)(=O)=O [Example 218]
7.22 | CNC(=O)c1nnc(Nc2ccn(C3CC3)n2)cc1Nc1ncccc1S(C)(=O)=O [Example 167]
6.58 | CNC(=O)c1nnc(NC(=O)C2CC2(C)C)cc1Nc1nc(C)ccc1S(C)(=O)=O (stereo not drawn) [Example 198]
7.62 | CNC(=O)c1nnc(Nc2ccc(C(C)(C)O)cn2)cc1Nc1nc(OC)ccc1S(C)(=O)=O [Example 201]
6.88 | CNC(=O)c1cnc(Nc2cc(C#N)c(C(F)(F)F)cn2)cc1Nc1ncccc1S(C)(=O)=O [Example 232]
5.76 | CNC(=O)c1nnc(Nc2cc(C)nc(C)n2)cc1Nc1nc(C)ccc1S(C)(=O)=O [Example 185]
7.49 | CNC(=O)c1nnc(NC(=O)C2CC2)cc1Nc1nc(C)ccc1S(C)(=O)=O [Example 187]
5.97 | CCNC(=O)c1nnc(Nc2cc(C3CC3)nc(C)n2)cc1Nc1ncccc1S(C)(=O)=O [compound 212]

Further lines, the molecule ahead of its results:

Structure (SMILES) | pIC50
CNC(=O)c1nnc(Nc2cnc(C3CC3)cn2)cc1Nc1ncccc1S(C)(=O)=O [Example 37] | 7.59
CNC(=O)c1nnc(NC2CC2)cc1Nc1ncccc1S(C)(=O)=O [Example 23] | 5.67
CNC(=O)c1nnc(Nc2cc(C3CC3)ncn2)cc1Nc1ncccc1S(C)(=O)=O [Example 14] | 7.96
CNC(=O)c1nnc(Nc2ccc(OCC(C)(C)O)cn2)cc1Nc1ncccc1S(C)(=O)=O [Example 77] | 6.40
CNC(=O)c1nnc(NC(=O)C(C)C)cc1Nc1ncccc1S(C)(=O)=O [Example 131] | 6.36
CNC(=O)c1nnc(Nc2ccc(-c3ccccc3)cn2)cc1Nc1ncccc1S(C)(=O)=O [Example 102] | 6.86
CNC(=O)c1nnc(NC(=O)C2CC2(F)F)cc1Nc1ncccc1S(C)(=O)=O (stereo not drawn) [Example 45] | 7.47
CCNC(=O)Nc1cc(Nc2ncccc2S(C)(=O)=O)c(C(=O)NC)nn1 [Example 121] | 7.41
CNC(=O)c1nnc(NC(=O)NC(C)(C)C)cc1Nc1ncccc1S(C)(=O)=O [Example 122] | 6.81
CNC(=O)c1nnc(Nc2cc(OC)c(C(C)(C)O)cn2)cc1Nc1ncccc1S(C)(=O)=O [Example 36] | 7.66
CNC(=O)c1nnc(Nc2cc(C)on2)cc1Nc1ncccc1S(C)(=O)=O [Example 58] | 7.62
CNC(=O)c1nnc(Nc2ccc(F)nc2)cc1Nc1ncccc1S(C)(=O)=O [Example 16] | 5.84
CCC(=O)Nc1cc(Nc2ncccc2S(C)(=O)=O)c(C(=O)NC)nn1 [Example 8] | 7.31
CNC(=O)c1nnc(Nc2cc(C(C)(C)NC(C)C)ccn2)cc1Nc1ncccc1S(C)(=O)=O [Example 72] | 7.64
CNC(=O)c1nnc(Nc2cc(C(C)(C)O)c(F)cn2)cc1Nc1ncccc1S(C)(=O)=O [Example 22] | 7.51
CNC(=O)c1nnc(Nc2ccc(C(C)(C)O)c(F)n2)cc1Nc1ncccc1S(C)(=O)=O [Example 151] | 8.70
CNC(=O)c1nnc(NC(=O)C2Cc3ccccc32)cc1Nc1ncccc1S(C)(=O)=O (stereo not drawn) [Example 66] | 5.91
CNC(=O)c1nnc(Nc2ccn(CC(F)(F)F)n2)cc1Nc1ncccc1S(C)(=O)=O [Example 26] | 7.31
CCCOC(=O)Nc1cc(Nc2ncccc2S(C)(=O)=O)c(C(=O)NC)nn1 [Example 136] | 6.46
CNC(=O)c1nnc(NC(=O)COCc2ccccc2)cc1Nc1ncccc1S(C)(=O)=O [Example 133] | 5.80
CNC(=O)c1nnc(NC(=O)OC(C)C)cc1Nc1ncccc1S(C)(=O)=O [Example 134] | 6.53
CNC(=O)c1nnc(Nc2cc(C3CC3)nc(COC)n2)cc1Nc1ncccc1S(C)(=O)=O [Example 41] | 7.62

Same assay, conditions: Homo sapiens, 1 h incubation with compound, 1000 U/mL recombinant human IFNα A/D for 15 min, pSTAT5 in CD3 positive population, read-out: IFNα-Induced Stat Phosph. (IC50)

pIC50 | Structure (SMILES)
7.28 | [2H]C([2H])([2H])NC(=O)c1nnc(NC(=O)[C@@H]2CC23CC3)cc1Nc1ncccc1S(C)(=O)=O [Example 252, (R)—N-(methyl-d3)-4-((3-(methylsulfonyl)pyridin-2-yl)amino)-6-(spiro[2.2]pentane-1-carboxamido)pyridazine-3-carboxamide]
7.68 | [2H]C([2H])([2H])NC(=O)c1cnc(Nc2ccc(F)cn2)cc1Nc1ncccc1S(C)(=O)=O [Example 215, 6-((5-fluoropyridin-2-yl)amino)-N-(methyl-d3)-4-((3-(methylsulfonyl)pyridin-2-yl)amino)nicotinamide]
7.74 | [2H]C([2H])([2H])NC(=O)c1nnc(Nc2ccc(C(F)F)cn2)cc1Nc1ncccc1S(C)(=O)=O [Example 172, 6-((5-(difluoromethyl)pyridin-2-yl)amino)-N-(methyl-d3)-4-((3-(methylsulfonyl)pyridin-2-yl)amino)pyridazine-3-carboxamide]
7.40 | [2H]C([2H])([2H])NC(=O)c1nnc(Nc2ccn(C)n2)cc1Nc1ncccc1S(C)(=O)=O [Example 166, N-trideuteromethyl-6-((1-methyl-1H-pyrazol-3-yl)amino)-4-((3-(methylsulfonyl)pyridin-2-yl)amino)pyridazine-3-carboxamide]
